In BindingDB's records for doi:10.1021/jm0010466 (2001):
Where a SMILES comes first, the peptide text is derived from it.

Assay: Binding affinity towards 23-nt RNA oligonucleotide from the 5'-untranslated region of the cholestery ester transfer protein (CETP)

Question: With `CC(C)C[C@H](NC(=O)[C@H](CCCCN)NC(=O)[C@H](Cc1ccc(O)cc1)NC(=O)[C@@H](N)CCCCN)C(=O)N[C@@H](Cc1ccc(O)cc1)C(=O)N[C@@H](CCCCN)C(=O)N[C@@H](CS)C(N)=O` (H-KYKLYKC-NH2) as the molecule, how does the Kd read?
Answer: The Kd was 32 µM.
